What was measured:
Format in all cases: functional
[1] = Antiproliferative activity against human HCT116 cells assessed as cell growth at 10^-4 M after 48 hrs by sulforhodamine B assay; conditions: HCT-116, 48 h, read-out: Activity
[2] = Antiproliferative activity against human SF539 cells assessed as cell growth at 10^-8 M after 48 hrs by sulforhodamine B assay; conditions: SF-539, 48 h, read-out: Activity
[3] = Antiproliferative activity against human SF295 cells assessed as cell growth at 10^-6 M after 48 hrs by sulforhodamine B assay; conditions: SF-295, 48 h, read-out: Activity
[4] = Antiproliferative activity against human PC3 cells assessed as cell growth at 10^-8 M after 48 hrs by sulforhodamine B assay; conditions: PC-3, 48 h, read-out: Activity
[5] = Antiproliferative activity against human RXF393 cells assessed as cell growth at 10^-6 M after 48 hrs by sulforhodamine B assay; conditions: RXF 393, 48 h, read-out: Activity
[6] = Antiproliferative activity against human HCC2998 cells assessed as cell growth at 10^-4 M after 48 hrs by sulforhodamine B assay; conditions: HCC 2998, 48 h, read-out: Activity
[7] = Antiproliferative activity against human OVCAR3 cells assessed as cell growth at 10^-4 M after 48 hrs by sulforhodamine B assay; conditions: OVCAR-3, 48 h, read-out: Activity
[8] = system: SK-MEL-28; test: Antiproliferative activity against human SK-MEL-28 cells assessed as growth inhibition after 48 hrs by sulforhodamine B assay; conditions: SK-MEL-28, 48 h
[9] = Antiproliferative activity against human UO31 cells assessed as cell growth at 10^-6 M after 48 hrs by sulforhodamine B assay; conditions: UO-31, 48 h, read-out: Activity
[10] = system: NCI-H226; test: Antiproliferative activity against human NCI-H226 cells assessed as cell growth at 10^-4 M after 48 hrs by sulforhodamine B assay; conditions: NCI-H226, 48 h, read-out: Activity
[11] = Antiproliferative activity against human LOXIMVI cells assessed as cell growth at 10^-6 M after 48 hrs by sulforhodamine B assay; conditions: LOX IMVI, read-out: Activity
[12] = system: SN12C; test: Antiproliferative activity against human SN12C cells assessed as cell growth at 10^-4 M after 48 hrs by sulforhodamine B assay; conditions: read-out: Activity
[13] = Antiproliferative activity against human HOP62 cells assessed as growth inhibition after 48 hrs by sulforhodamine B assay; conditions: HOP-62, 48 h
[14] = Antiproliferative activity against human OVCAR8 cells assessed as growth inhibition after 48 hrs by sulforhodamine B assay; conditions: OVCAR-8, 48 h
[15] = Antiproliferative activity against human COLO205 cells assessed as cell growth at 10^-7 M after 48 hrs by sulforhodamine B assay; conditions: COLO 205, 48 h, read-out: Activity
[16] = system: SN12C; test: Antiproliferative activity against human SN12C cells assessed as cell growth at 10^-7 M after 48 hrs by sulforhodamine B assay; conditions: read-out: Activity
[17] = Antiproliferative activity against human PC3 cells assessed as cell growth at 10^-4 M after 48 hrs by sulforhodamine B assay; conditions: PC-3, 48 h, read-out: Activity
[18] = Antiproliferative activity against human OVCAR4 cells assessed as cell growth at 10^-7 M after 48 hrs by sulforhodamine B assay; conditions: OVCAR-4, 48 h, read-out: Activity
[19] = system: K562; test: Antiproliferative activity against human K562 cells assessed as cell growth at 10^-6 M after 48 hrs by sulforhodamine B assay; conditions: K562, 48 h, read-out: Activity
[20] = Antiproliferative activity against human COLO205 cells assessed as cell growth at 10^-8 M after 48 hrs by sulforhodamine B assay; conditions: COLO 205, 48 h, read-out: Activity
[21] = system: A498; test: Antiproliferative activity against human A498 cells assessed as cell growth at 10^-8 M after 48 hrs by sulforhodamine B assay; conditions: A498, 48 h, read-out: Activity
[22] = system: MDA-MB-435; test: Antiproliferative activity against human MDA-MB-435 cells assessed as cell growth at 10^-4 M after 48 hrs by sulforhodamine B assay; conditions: MDA-MB-435, 48 h, read-out: Activity
[23] = Antiproliferative activity against human SNB75 cells assessed as growth inhibition after 48 hrs by sulforhodamine B assay; conditions: SNB-75, 48 h; for CC50: read-out: LC50 (the source's name)
[24] = Antiproliferative activity against human PC3 cells assessed as cell growth at 10^-7 M after 48 hrs by sulforhodamine B assay; conditions: PC-3, 48 h, read-out: Activity
[25] = system: M14; test: Antiproliferative activity against human M14 cells assessed as growth inhibition after 48 hrs by sulforhodamine B assay; conditions: M14, 48 h; for CC50: read-out: LC50 (the source's name)
[26] = system: CCRF-CEM; test: Antiproliferative activity against human CCRF-CEM cells assessed as growth inhibition after 48 hrs by sulforhodamine B assay; conditions: for CC50: read-out: LC50 (the source's name)
[27] = Antiproliferative activity against human BT549 cells assessed as cell growth at 10^-6 M after 48 hrs by sulforhodamine B assay; conditions: BT-549, 48 h, read-out: Activity
[28] = Antiproliferative activity against human UACC257 cells assessed as growth inhibition after 48 hrs by sulforhodamine B assay; conditions: UACC-257, 48 h; for CC50: read-out: LC50 (the source's name)
[29] = Antiproliferative activity against human UACC257 cells assessed as cell growth at 10^-8 M after 48 hrs by sulforhodamine B assay; conditions: UACC-257, 48 h, read-out: Activity
[30] = system: MCF7; test: Antiproliferative activity against human MCF7 cells assessed as cell growth at 10^-4 M after 48 hrs by sulforhodamine B assay; conditions: MCF7, 48 h, read-out: Activity
[31] = system: T47D; test: Antiproliferative activity against human T47D cells assessed as growth inhibition after 48 hrs by sulforhodamine B assay; conditions: for CC50: read-out: LC50 (the source's name)
[32] = system: NCI-H522; test: Antiproliferative activity against human NCI-H522 cells assessed as growth inhibition after 48 hrs by sulforhodamine B assay; conditions: NCI-H522, 48 h
[33] = system: SK-MEL-2; test: Antiproliferative activity against human SK-MEL-2 cells assessed as cell growth at 10^-4 M after 48 hrs by sulforhodamine B assay; conditions: SK-MEL-2, 48 h, read-out: Activity
[34] = Antiproliferative activity against human NCI-ADR-RES cells assessed as cell growth at 10^-7 M after 48 hrs by sulforhodamine B assay; conditions: read-out: Activity
[35] = Antiproliferative activity against human HCT15 cells assessed as cell growth at 10^-8 M after 48 hrs by sulforhodamine B assay; conditions: HCT-15, 48 h, read-out: Activity
[36] = Antiproliferative activity against human MOLT4 cells assessed as cell growth at 10^-6 M after 48 hrs by sulforhodamine B assay; conditions: MOLT-4, 48 h, read-out: Activity

CNC(=O)c1cc(Oc2ccc3nc(NC(=O)Nc4cc(C(F)(F)F)cc(C(F)(F)F)c4)sc3c2)ccn1
growth at 100 µM [1]: -95%
growth at 0.01 µM [2]: 96%
growth at 1 µM [3]: 55%
growth at 0.01 µM [4]: 101%
growth at 1 µM [5]: 63%
growth at 100 µM [6]: -74%
growth at 100 µM [7]: -89%
GI50 [8]: 1290 nM
TGI [8]: 2930 nM
CC50 ([8]; read-out: LC50 (the source's name)): 6620 nM
growth at 1 µM [9]: 65%
growth at 100 µM [10]: -52%
growth at 1 µM [11]: 63%
growth at 100 µM [12]: -60%
GI50 [13]: 1150 nM
LC50 [13]: 6790 nM
TGI [13]: 2800 nM
GI50 [14]: 1330 nM
LC50 [14]: 5470 nM
TGI [14]: 2690 nM
growth at 0.1 µM [15]: 96%
growth at 0.1 µM [16]: 104%
growth at 100 µM [17]: -75%
growth at 0.1 µM [18]: 94%
growth at 1 µM [19]: 44%
growth at 0.01 µM [20]: 90%
growth at 0.01 µM [21]: 100%
growth at 100 µM [22]: -80%
GI50 [23]: 1000 nM
TGI [23]: 2700 nM
CC50 [23]: 7260 nM
growth at 0.1 µM [24]: 99%
GI50 [25]: 1500 nM
TGI [25]: 3220 nM
CC50 [25]: 6900 nM
GI50 [26]: 1070 nM
TGI [26]: 5830 nM
CC50 [26]: > 100000 nM
growth at 1 µM [27]: 67%
GI50 [28]: 1150 nM
TGI [28]: 2620 nM
CC50 [28]: 5950 nM
growth at 0.01 µM [29]: 102%
growth at 100 µM [30]: -55%
GI50 [31]: 479 nM
TGI [31]: 2300 nM
CC50 [31]: 8470 nM
GI50 [32]: 534 nM
LC50 (concentration killing 50% of cells) [32]: 8100 nM
TGI [32]: 2280 nM
growth at 100 µM [33]: -75%
growth at 0.1 µM [34]: 98%
growth at 0.01 µM [35]: 88%

CNC(=O)c1cc(Oc2ccc3nc(NC(=O)Nc4ccc(Cl)c(C(F)(F)F)c4)sc3c2)ccn1
growth at 100 µM [1]: -19%
growth at 0.01 µM [2]: 97%
growth at 1 µM [3]: 90%
growth at 0.01 µM [4]: 92%
growth at 1 µM [5]: 88%
growth at 100 µM [6]: 66%
growth at 100 µM [7]: -14%
GI50 [8]: 1560 nM
growth at 1 µM [9]: 108%
growth at 100 µM [10]: -25%
growth at 1 µM [11]: 87%
growth at 1 µM [36]: 95%
growth at 100 µM [12]: 12%
GI50 [13]: 1940 nM
LC50 [13]: > 100000 nM
TGI [13]: 4740 nM
GI50 [14]: 2340 nM
LC50 [14]: > 100000 nM
TGI [14]: 5250 nM
growth at 0.1 µM [15]: 106%
growth at 0.1 µM [16]: 93%
growth at 100 µM [17]: 7%
growth at 0.1 µM [18]: 95%
growth at 1 µM [19]: 96%
growth at 0.01 µM [20]: 98%
growth at 0.01 µM [21]: 95%
growth at 100 µM [22]: 40%
GI50 [23]: 1520 nM
TGI [23]: 3240 nM
CC50 [23]: 6880 nM
growth at 0.1 µM [24]: 87%
GI50 [25]: 1960 nM
CC50 [25]: > 100000 nM
TGI [26]: > 100000 nM
CC50 [26]: > 100000 nM
growth at 1 µM [27]: 87%
GI50 [28]: 3370 nM
TGI [28]: > 100000 nM
CC50 [28]: > 100000 nM
growth at 0.01 µM [29]: 102%
GI50 [31]: 723 nM
TGI [31]: 3650 nM
CC50 [31]: > 100000 nM
GI50 [32]: 2540 nM
LC50 (concentration killing 50% of cells) [32]: > 100000 nM
TGI [32]: > 100000 nM
growth at 100 µM [33]: -18%
growth at 0.1 µM [34]: 113%
growth at 0.01 µM [35]: 97%

Source: ChEMBL document CHEMBL3797052 (Eur J Med Chem, 2016)
